We go through one molecule from US20070244146A1, “Thienopyridines as IKK inhibitors” (priority 2004, published 2007).

This assay addresses T1, recombinant human IKKb (Homo sapiens, UniProt O14920).
T1 sequence (O14920 1-756): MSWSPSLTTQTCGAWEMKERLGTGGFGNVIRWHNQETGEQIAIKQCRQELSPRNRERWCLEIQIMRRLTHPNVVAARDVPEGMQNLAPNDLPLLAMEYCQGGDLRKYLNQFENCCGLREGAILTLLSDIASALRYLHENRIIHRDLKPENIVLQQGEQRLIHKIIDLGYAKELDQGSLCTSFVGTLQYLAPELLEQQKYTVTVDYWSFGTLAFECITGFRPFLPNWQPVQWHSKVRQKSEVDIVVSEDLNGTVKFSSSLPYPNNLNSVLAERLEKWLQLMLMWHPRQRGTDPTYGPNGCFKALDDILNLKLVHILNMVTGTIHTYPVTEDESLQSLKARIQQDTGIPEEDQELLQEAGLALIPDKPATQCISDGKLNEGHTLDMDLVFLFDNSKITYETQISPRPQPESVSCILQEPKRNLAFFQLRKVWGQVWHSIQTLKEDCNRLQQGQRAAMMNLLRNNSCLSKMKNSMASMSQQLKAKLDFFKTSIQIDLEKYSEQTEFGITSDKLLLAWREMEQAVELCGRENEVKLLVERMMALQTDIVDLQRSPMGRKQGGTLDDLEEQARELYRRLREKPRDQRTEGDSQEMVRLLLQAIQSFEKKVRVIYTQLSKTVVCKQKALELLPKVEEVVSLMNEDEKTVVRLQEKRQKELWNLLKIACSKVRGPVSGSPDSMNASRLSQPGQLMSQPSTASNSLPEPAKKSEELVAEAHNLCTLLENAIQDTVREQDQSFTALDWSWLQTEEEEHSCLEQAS
The assay can be described thus: IKK kinase assay: incorporation of radiolabeled ATP into biotin-peptide substrate derived from IkB-alpha. It counts as biochemical. Conditions: purified recombinant human IKKb 25 nM, ATP 10 μM, 30 min at 30° C. Here is the method: This example describes an assay that is useful in evaluating and selecting a compound that modulates IKK. The assay measures the incorporation of radiolabeled ^3P gATP into the Biotin-peptide kinase substrate, derived from the IkB-alpha sequence.
In a 40 ul volume, 26 ul of ADB diluted, purified recombinant human IKKb [25 nM] was mixed with 4 ul 10× concentration of test compounds, [usually 100 uM-0.003 uM], [10%] DMSO and incubated for 10 minutes at room temperature. The kinase reaction was initiated by the addition of 10 ul 4× substrate cocktail containing the peptide substrate [0 or 30 μM] ATP [10 μM], and ^3PgATP [2 uCi/r×n]. After 30 minutes of incubation at 30° C., the reaction was terminated by the transfer of 25 ul reaction sample to a phosphocellulose membrane/plate containing 150 ul 0.75% phosphoric acid.
On the following day, the free radionucleotides in the phosphocellulose membrane were washed under vacuum with 3×200 ul of 0.75% phosphoric acid. After the last wash membrane/plates were transferred to an adoptor plate and 70 ul of scintillation cocktail was added to each well. After four hours, the amount of radioactivity for each well was counted in a top counter.

pIC50: −log10 of the molar value. Where only a bound is given, the exact number is not on record here.

As usually defined, the pIC50 is −log10 of the IC50, conventionally taken in molar units. For `N#Cc1cccc(-c2cc3c(N)ncc(C(N)=O)c3s2)c1` [Compound 12, 4-Amino-2-(3-cyano-phenyl)-thieno[3,2-c]pyridine-7-carboxylic acid amide], the negative-log IC50 (pIC50) is above 6.00.
